Assays:
Format in all cases: in vivo
[1] = system: woolly cupgrass (Eriochloa villosa); experiment: Test B preemergence, woolly cupgrass; conditions: scale 0 to 100
Excerpt: (§1) Seeds of plant species selected from blackgrass (Alopecurus myosuroides), downy bromegrass (Bromus tectorum), green foxtail (Setaria viridis), Italian ryegrass (Lolium multiflorum), wheat (Triticum aestivum), wild oat (Avena fatua), catchweed bedstraw (Galium aparine), bermudagrass (Cynodon dactylon), Surinam grass (Brachiaria decumbens), cocklebur (Xanthium strumarium), corn (Zea mays), large crabgrass (Digitaria sanguinalis), woolly cupgrass (Eriochloa villosa), giant foxtail (Setaria faberii), goosegrass (Eleusine indica), johnsongrass (Sorghum halepense), kochia (Kochia scoparia), lambsquarters (Chenopodium album), morningglory (Ipomoea coccinea), nightshade (eastern black nightshade, Solanum ptycanthum), yellow nutsedge (Cyperus esculentus), pigweed (Amaranthus retroflexus), ragweed (common ragweed, Ambrosia elatior), soybean (Glycine max), sunflower (common oilseed sunflower, Helianthus annuus), Russian thistle (Salsola kali), and velvetleaf (Abutilon theophrasti) were planted into a blend of loam soil and sand and treated preemergence with test compounds formulated in a non-phytotoxic solvent mixture which included a surfactant. Treated plants and controls were maintained in a greenhouse for 13 to 15 days, after which time all species were compared to controls and visually evaluated. Plant response ratings, summarized in Table B, are based on a scale of 0 to 100 where 0 is no effect and 100 is complete control. A dash (-) response means no test result.

[2] = system: bermudagrass (Cynodon dactylon); experiment: Test B preemergence, bermudagrass; conditions: scale 0 to 100
Excerpt: as §1

corn (Zea mays) [3] = experiment: Test B preemergence, corn; conditions: scale 0 to 100
Excerpt: as §1

[4] = system: large crabgrass (Digitaria sanguinalis); experiment: Test B preemergence, large crabgrass; conditions: scale 0 to 100
Excerpt: as §1

[5] = system: large crabgrass (Digitaria sanguinalis); experiment: Test A preemergence, large crabgrass; conditions: 0 to 100 scale (0 no effect, 100 complete control)
Outline: (§2)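 Greenhouse pre/postemergence test, loam–sand soil. Postemergence plants one- to two-leaf, 2–10 cm. Visual injury rating ~10 d after treatment, 0–100 vs untreated.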

[6] = system: velvetleaf (Abutilon theophrasti); experiment: Test A preemergence, velvetleaf; conditions: 0 to 100 scale (0 no effect, 100 complete control)
Outline: as §2

[7] = system: barnyardgrass (Echinochloa crus-galli); experiment: Test B flooded paddy test, barnyardgrass; conditions: Flood
Outline: (§3)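 Step one: raise plants to 2 leaves. Step two: flood pots 3 cm over the soil and apply compound into the water, keeping this depth. Step three: after 13–15 greenhouse days, score visually versus controls, 0–100, where 100 means complete control.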

[8] = system: wheat (Triticum aestivum); experiment: Test A preemergence, wheat; conditions: 0 to 100 scale (0 no effect, 100 complete control)
Outline: as §2

soybean (Glycine max) = experiment: Test B preemergence, soybean; conditions: Preemergence, scale 0 to 100
Excerpt: as §1

[9] = system: barnyardgrass (Echinochloa crus-galli); experiment: Test A preemergence, barnyardgrass; conditions: 0 to 100 scale (0 no effect, 100 complete control)
Outline: as §2

[10] = system: giant foxtail (Setaria faberi); experiment: Test A preemergence, giant foxtail; conditions: 0 to 100 scale (0 no effect, 100 complete control)
Outline: as §2

[11] = system: umbrella sedge (Cyperus difformis); experiment: Test B flooded paddy test, umbrella sedge; conditions: Flood, scale 0 to 100
Outline: as §3

[12] = system: velvetleaf (Abutilon theophrasti); experiment: Test B preemergence, velvetleaf; conditions: Preemergence, scale 0 to 100
Excerpt: as §1

[13] = system: morningglory (Ipomoea spp.); experiment: Test A preemergence, morningglory; conditions: 0 to 100 scale (0 no effect, 100 complete control)
Outline: as §2

[14] = system: Surinam grass (Brachiaria decumbens); experiment: Test B preemergence, Surinam grass; conditions: Preemergence, scale 0 to 100
Excerpt: as §1

[15] = system: pigweed (Amaranthus retroflexus); experiment: Test A preemergence, pigweed; conditions: 0 to 100 scale (0 no effect, 100 complete control)
Outline: as §2

[16] = system: catchweed bedstraw (Galium aparine); experiment: Test B preemergence, catchweed bedstraw; conditions: scale 0 to 100
Excerpt: as §1

[17] = system: giant foxtail (Setaria faberi); experiment: Test A postemergence, giant foxtail; conditions: 0 to 100 scale (0 no effect, 100 complete control)
Outline: as §2

[18] = system: nightshade (eastern black nightshade, Solanum ptycanthum); experiment: Test B preemergence, nightshade; conditions: scale 0 to 100
Excerpt: as §1

corn (Zea mays) [19] = experiment: Test A preemergence, corn; conditions: 0 to 100 scale (0 no effect, 100 complete control)
Outline: as §2

CC1(C)CC(S(=O)(=O)Cc2c(C(F)(F)F)nc3n(c2=O)CCO3)=NO1 [Compound 2, 6-[[(4,5-dihydro-5,5-dimethyl-3-isoxazolyl)sulfonyl]methyl]-2,3-dihydro-7-(trifluoromethyl)-5H-oxazolo[3,2-α]pyrimidin-5-one]
Plant response rating, Cupgrass, Woolly ([1]; 8 g ai/ha): 0 | Plant response rating, Cupgrass, Woolly ([1]; 16 g ai/ha): 75 | Plant response rating, Cupgrass, Woolly ([1]; 31 g ai/ha): 75 | Plant response rating, Cupgrass, Woolly ([1]; 62 g ai/ha): 95 | Plant response rating, Bermudagrass ([2]; 8 g ai/ha): 0 | Plant response rating, Bermudagrass ([2]; 16 g ai/ha): 0 | Plant response rating, Bermudagrass ([2]; 31 g ai/ha): 75 | Plant response rating, Bermudagrass ([2]; 62 g ai/ha): 85 | Plant response rating, Corn (corn (Zea mays) [3]; 8 g ai/ha): 0 | Plant response rating, Corn (corn (Zea mays) [3]; 16 g ai/ha): 0 | Plant response rating, Corn (corn (Zea mays) [3]; 31 g ai/ha): 0 | Plant response rating, Corn (corn (Zea mays) [3]; 62 g ai/ha): 20 | Plant response rating, Crabgrass, Large ([4]; 8 g ai/ha): 0 | Plant response rating, Crabgrass, Large ([4]; 16 g ai/ha): 65 | Plant response rating, Crabgrass, Large ([4]; 31 g ai/ha): 80 | Plant response rating, Crabgrass, Large ([4]; 62 g ai/ha): 90 | Plant response rating, Crabgrass, Large ([5]; 125 g ai/ha): 90 | Plant response rating, Crabgrass, Large ([5]; 500 g ai/ha): 100 | Plant response rating, Velvetleaf ([6]; 125 g ai/ha): 10 | Plant response rating, Velvetleaf ([6]; 500 g ai/ha): 90 | Plant response rating, Barnyardgrass ([7]; 62 g ai/ha, scale 0 to 100): 0 | Plant response rating, Barnyardgrass ([7]; 250 g ai/ha, scale 0 to 100 (0 no effect, 100 complete control)): 0 | Plant response rating, Wheat ([8]; 125 g ai/ha): 10 | Plant response rating, Wheat ([8]; 500 g ai/ha): 60 | Plant response rating, Soybean (soybean (Glycine max); 31 g ai/ha): 0 | Plant response rating, Soybean (soybean (Glycine max); 62 g ai/ha): 0 | Plant response rating, Barnyardgrass ([9]; 125 g ai/ha): 80 | Plant response rating, Barnyardgrass ([9]; 500 g ai/ha): 90 | Plant response rating, Foxtail, Giant ([10]; 125 g ai/ha): 90 | Plant response rating, Foxtail, Giant ([10]; 500 g ai/ha): 100 | Plant response rating, Sedge, Umbrella ([11]; 62 g ai/ha): 0 | Plant response rating, Sedge, Umbrella ([11]; 250 g ai/ha): 0 | Plant response rating, Velvetleaf ([12]; 16 g ai/ha): 0 | Plant response rating, Velvetleaf ([12]; 31 g ai/ha): 0 | Plant response rating, Velvetleaf ([12]; 62 g ai/ha): 0 | Plant response rating, Morningglory ([13]; 125 g ai/ha): 0 | Plant response rating, Morningglory ([13]; 500 g ai/ha): 80 | Plant response rating, Surinam Grass ([14]; 16 g ai/ha): 0 | Plant response rating, Surinam Grass ([14]; 31 g ai/ha): 80 | Plant response rating, Surinam Grass ([14]; 62 g ai/ha): 80 | Plant response rating, Pigweed ([15]; 125 g ai/ha): 20 | Plant response rating, Pigweed ([15]; 500 g ai/ha): 60 | Plant response rating, Galium ([16]; 8 g ai/ha): 0 | Plant response rating, Galium ([16]; 16 g ai/ha): 100 | Plant response rating, Galium ([16]; 31 g ai/ha): 100 | Plant response rating, Galium ([16]; 62 g ai/ha): 100 | Plant response rating, Foxtail, Giant ([17]; 125 g ai/ha): 50 | Plant response rating, Foxtail, Giant ([17]; 500 g ai/ha): 80 | Plant response rating, Nightshade ([18]; 8 g ai/ha): 0 | Plant response rating, Nightshade ([18]; 16 g ai/ha): 0 | Plant response rating, Nightshade ([18]; 31 g ai/ha): 0 | Plant response rating, Nightshade ([18]; 62 g ai/ha): 0 | Plant response rating, Corn (corn (Zea mays) [19]; 125 g ai/ha): 0 | Plant response rating, Corn (corn (Zea mays) [19]; 500 g ai/ha): 50

Source: patent US20100099561A1, “HETEROBICYCLIC ALKYLTHIO-BRIDGED ISOXAZOLINES” (E.I. DU PONT DE NEMOURS AND COMPANY, priority 2008, published 2010)
